Tested on: gap junctions between keratinocytes
Assay: Transfer of the dye lucifer yellow between keratinocytes via gap junctions
Assay type: cell-based
Conditions: substance alone

SMILES: C[C@H](NC(=O)Cc1cc(F)cc(F)c1)C(=O)N[C@H](C(=O)OC(C)(C)C)c1ccccc1 [DAPT, N—[N-(3,5-difluorophenacetyl)-L-alanyl]-S-phenylglycine t-butyl ester]
- diffusion of lucifer yellow between keratinocytes (exchanges via gap junctions): greatly reduced

From US10413502B2, “Cosmetic use of a peppermint extract” (LVMH RECHERCHE, priority 2015, dated 2019)
